Data published in patent publication US20260097047A1, “Small molecule inhibitors of the ribosome biogenesis factor NVL2” (Board of Regents, The University of Texas System, priority 2023, published 2026).
pIC50: −log10 of the molar value. Where two headings read alike, the source gives them in different places.

System: HCT116 cells
Test: Cell viability assay (CellTiter-Glo, 72 hours) in HCT116 human colorectal cancer cells
Assay type: cell-based
Conditions: Homo sapiens, HCT-116, HCT116, 72 hours, read-out: Activity
Method in brief: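 2,000 cells/well adhered overnight, then compound added by digital dispenser with DMSO normalized to 0.5%. Viability read after 72 h at 37 °C by ATP-based CellTiter-Glo luminescence. IC50 from ten-point curves baseline-corrected to vehicle, five-parameter asymmetric least-squares fit.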

SMILES	pIC50 (Table 5)	further results
CC#CCN1C(=O)c2ccccc2Sc2cc(NC(=S)Nc3ccc(OC)nc3)ccc21 [1-(10-(But-2-yn-1-yl)-11-oxo-10,11-dihydrodibenzo[b,f][1,4]thiazepin-7-yl)-3-(6-methoxypyridin-3-yl)thiourea]	–	pIC50 (Table 4): > 6.30
CC#CCN1C(=O)c2ccccc2Cc2cc(Nc3ncccc3C#N)ccc21 [2-((5-(But-2-yn-1-yl)-6-oxo-6,11-dihydro-5H-dibenzo[b,e]azepin-2-yl)amino) nicotinonitrile]	> 6.30	–
CC#CCN1C(=O)c2ccccc2Cc2cc(Nc3nccc(C#N)c3C)ccc21 [2-((5-(But-2-yn-1-yl)-6-oxo-6,11-dihydro-5H-dibenzo[b,e]azepin-2-yl)amino)-3-methylisonicotinonitrile]	> 6.30	–
CC#CCN1C(=O)c2ccc(F)cc2Sc2cc(Nc3ncccc3C#N)ccc21 [2-((10-(But-2-yn-1-yl)-3-fluoro-11-oxo-10,11-dihydrodibenzo[b,f][1,4]thiazepin-7-yl)amino) nicotinonitrile]	> 6.30	–
CC#CCN1C(=O)c2ccccc2Sc2cc(Nc3cc(C#N)ccn3)ccc21 [2-((10-(But-2-yn-1-yl)-11-oxo-10,11-dihydrodibenzo[b,f][1,4]thiazepin-7-yl)amino) isonicotinonitrile]	> 6.30	–
CC#CCN1C(=O)c2ccccc2Sc2cc(Nc3nccc(C#N)c3F)ccc21 [2-((10-(But-2-yn-1-yl)-11-oxo-10,11-dihydrodibenzo[b,f][1,4]thiazepin-7-yl)amino)-3-fluoroisonicotinonitrile]	> 6.30	–
CC#CCN1C(=O)c2ccccc2Sc2cc(Nc3nccc(C#N)c3C)ccc21 [2-((10-(But-2-yn-1-yl)-11-oxo-10,11-dihydrodibenzo[b,f][1,4]thiazepin-7-yl)amino)-3-methylisonicotinonitrile]	> 6.30	–
CC#CCN1C(=O)c2ccccc2Sc2cc(Nc3nccc(C#N)n3)ccc21 [2-((10-(But-2-yn-1-yl)-11-oxo-10,11-dihydrodibenzo[b,f][1,4]thiazepin-7-yl)amino)pyrimidine-4-carbonitrile]	> 6.30	–
CC#CCN1C(=O)c2ccccc2Cc2cc(Nc3nccnc3C#N)ccc21 [3-((5-(But-2-yn-1-yl)-6-oxo-6,11-dihydro-5H-dibenzo[b,e]azepin-2-yl)amino) pyrazine-2-carbonitrile]	> 6.30	–
CC#CCN1C(=O)c2ccccc2Sc2cc(Nc3cccnc3C#N)ccc21 [3-((10-(But-2-yn-1-yl)-11-oxo-10,11-dihydrodibenzo[b,f][1,4]thiazepin-7-yl)amino) picolinonitrile]	> 6.30	–
CC#CCN1C(=O)c2ccccc2Sc2cc(Nc3nnccc3C#N)ccc21 [3-((10-(But-2-yn-1-yl)-11-oxo-10,11-dihydrodibenzo[b,f][1,4]thiazepin-7-yl)amino)pyridazine-4-carbonitrile]	> 6.30	–
CC#CCN1C(=O)c2ccccc2Sc2cc(Nc3ccncc3C#N)ccc21 [4-((10-(But-2-yn-1-yl)-11-oxo-10,11-dihydrodibenzo[b,f][1,4]thiazepin-7-yl)amino) nicotinonitrile]	> 6.30	–
CC#CCN1C(=O)c2ccccc2Sc2cc(Nc3ncnc(C#N)n3)ccc21 [4-((10-(But-2-yn-1-yl)-11-oxo-10,11-dihydrodibenzo[b,f][1,4]thiazepin-7-yl)amino)-1,3,5-triazine-2-carbonitrile]	5.30 to 6.00	–
CC#CCN1C(=O)c2ccccc2Sc2cc(NC3COCC3C#N)ccc21 (stereo not shown) [4-((10-(But-2-yn-1-yl)-11-oxo-10,11-dihydrodibenzo[b,f][1,4]thiazepin-7-yl)amino)tetrahydrofuran-3-carbonitrile]	–	pIC50 (Table 6): 5.30 to 6.00
CC#CCN1C(=O)c2ccccc2Cc2cc(Nc3ncccc3F)ccc21 [5-(But-2-yn-1-yl)-2-((3-fluoropyridin-2-yl)amino)-5H-dibenzo[b,e]azepin-6 (11H)-one]	> 6.30	–
CC#CCN1C(=O)c2ccccc2Cc2cc(Nc3ncccc3C)ccc21 [5-(But-2-yn-1-yl)-2-((3-methylpyridin-2-yl)amino)-5H-dibenzo[b,e]azepin-6 (11H)-one]	> 6.30	–
CC#CCN1C(=O)c2ccccc2Cc2cc(Nc3ncnc(C#N)c3C)ccc21 [6-((5-(But-2-yn-1-yl)-6-oxo-6,11-dihydro-5H-dibenzo[b,e]azepin-2-yl)amino)-5-methylpyrimidine-4-carbonitrile]	> 6.30	–
CC#CCN1C(=O)c2ccccc2Sc2cc(Nc3ncc(C#N)cc3C)ccc21 [6-((10-(But-2-yn-1-yl)-11-oxo-10,11-dihydrodibenzo[b,f][1,4]thiazepin-7-yl)amino)-5-methylnicotinonitrile]	> 6.30	–
CC#CCN1C(=O)c2ccccc2Sc2cc(Nc3nc(C#N)ccc3C)ccc21 [6-((10-(But-2-yn-1-yl)-11-oxo-10,11-dihydrodibenzo[b,f][1,4]thiazepin-7-yl)amino)-5-methylpicolinonitrile]	> 6.30	–
CC#CCN1C(=O)c2ccccc2Sc2cc(Nc3nnc(C#N)cc3C)ccc21 [6-((10-(But-2-yn-1-yl)-11-oxo-10,11-dihydrodibenzo[b,f][1,4]thiazepin-7-yl)amino)-5-methylpyridazine-3-carbonitrile]	> 6.30	–

SMILES	pIC50 (Table 5)	further results
CC#CCN1C(=O)c2ccccc2Sc2cc(Nc3ncnc(C#N)c3C)ccc21 [6-((10-(But-2-yn-1-yl)-11-oxo-10,11-dihydrodibenzo[b,f][1,4]thiazepin-7-yl)amino)-5-methylpyrimidine-4-carbonitrile]	> 6.30	–
CC#CCN1C(=O)c2ccccc2Sc2cc(Nc3ccc(C#N)nn3)ccc21 [6-((10-(But-2-yn-1-yl)-11-oxo-10,11-dihydrodibenzo[b,f][1,4]thiazepin-7-yl)amino)pyridazine-3-carbonitrile]	> 6.30	–
CC#CCN1C(=O)c2ccccc2Sc2cc(Nc3cc(C#N)ncn3)ccc21 [6-((10-(But-2-yn-1-yl)-11-oxo-10,11-dihydrodibenzo[b,f][1,4]thiazepin-7-yl)amino)pyrimidine-4-carbonitrile]	> 6.30	–
CC#CCN1C(=O)c2ccccc2Sc2cc(NC3CC4(COC4)C3)ccc21 [7-((2-Oxaspiro[3.3]heptan-6-yl)amino)-10-(but-2-yn-1-yl)dibenzo[b,f][1,4]thiazepin-11 (10H)-one]	–	pIC50 (Table 6): > 6.30
CC#CCN1C(=O)c2ccccc2Sc2cc(NC3CC4CCC3C4)ccc21 (stereo not shown) [7-(Bicyclo[2.2.1]heptan-2-ylamino)-10-(but-2-yn-1-yl)dibenzo[b,f][1,4]thiazepin-11 (10H)-one]	–	pIC50 (Table 6): > 6.30
CC#CCN1C(=O)c2ccc(F)cc2Sc2cc(Nc3ncccc3F)ccc21 [10-(But-2-yn-1-yl)-3-fluoro-7-((3-fluoropyridin-2-yl)amino)dibenzo[b,f][1,4]thiazepin-11 (10H)-one]	> 6.30	–
CC#CCN1C(=O)c2ccc(F)cc2Sc2cc(Nc3nccnc3OC)ccc21 [10-(But-2-yn-1-yl)-3-fluoro-7-((3-methoxypyrazin-2-yl)amino)dibenzo[b,f][1,4]thiazepin-11 (10H)-one]	6.00 to 6.30	–
CC#CCN1C(=O)c2ccc(F)cc2Sc2cc(Nc3ncccc3OC)ccc21 [10-(But-2-yn-1-yl)-3-fluoro-7-((3-methoxypyridin-2-yl)amino)dibenzo[b,f][1,4]thiazepin-11 (10H)-one]	> 6.30	–
CC#CCN1C(=O)c2ccc(F)cc2Sc2cc(Nc3nccnc3C)ccc21 [10-(But-2-yn-1-yl)-3-fluoro-7-((3-methylpyrazin-2-yl)amino)dibenzo[b,f][1,4]thiazepin-11 (10H)-one]	> 6.30	–
CC#CCN1C(=O)c2ccc(F)cc2Sc2cc(Nc3ncccc3C)ccc21 [10-(But-2-yn-1-yl)-3-fluoro-7-((3-methylpyridin-2-yl)amino)dibenzo[b,f][1,4]thiazepin-11 (10H)-one]	> 6.30	–
CC#CCN1C(=O)c2ccccc2Sc2cc(Nc3cnn(C)c3)ccc21 [10-(But-2-yn-1-yl)-7-((1-methyl-1H-pyrazol-4-yl)amino)dibenzo[b,f][1,4]thiazepin-11 (10H)-one]	> 6.30	–
CC#CCN1C(=O)c2ccccc2Sc2cc(NC3CCOC3C)ccc21 (stereo not shown) [10-(But-2-yn-1-yl)-7-((2-methyltetrahydrofuran-3-yl)amino)dibenzo[b,f][1,4]thiazepin-11 (10H)-one]	–	pIC50 (Table 6): > 6.30
CC#CCN1C(=O)c2ccccc2Sc2cc(Nc3ncc(C)nc3C)ccc21 [10-(But-2-yn-1-yl)-7-((3,5-dimethylpyrazin-2-yl)amino)dibenzo[b,f][1,4]thiazepin-11 (10H)-one]	> 6.30	–
CC#CCN1C(=O)c2ccccc2Sc2cc(Nc3ncc(C)cc3C)ccc21 [10-(But-2-yn-1-yl)-7-((3,5-dimethylpyridin-2-yl)amino)dibenzo[b,f][1,4]thiazepin-11 (10H)-one]	> 6.30	–
CC#CCN1C(=O)c2ccc(C#N)cc2Sc2cc(Nc3nc(C)cnc3C)ccc21 [10-(But-2-yn-1-yl)-7-((3,6-dimethylpyrazin-2-yl)amino)-11-oxo-10,11-dihydrodibenzo[b,f][1,4]thiazepine-3-carbonitrile]	> 6.30	–
CC#CCN1C(=O)c2ccccc2Sc2cc(Nc3nc(C)cnc3C)ccc21 [10-(But-2-yn-1-yl)-7-((3,6-dimethylpyrazin-2-yl)amino)dibenzo[b,f][1,4]thiazepin-11 (10H)-one]	> 6.30	–
CC#CCN1C(=O)c2ccccc2Sc2cc(Nc3ncccc3C(F)(F)F)ccc21 [10-(But-2-yn-1-yl)-7-((3-(trifluoromethyl)pyridin-2-yl)amino)dibenzo[b,f][1,4]thiazepin-11 (10H)-one]	> 6.30	–
CC#CCN1C(=O)c2ccc(F)cc2Sc2cc(Nc3ncccc3C3CC3)ccc21 [10-(But-2-yn-1-yl)-7-((3-cyclopropylpyridin-2-yl)amino)-3-fluorodibenzo[b,f][1,4]thiazepin-11 (10H)-one]	> 6.30	–
C#Cc1cccnc1Nc1ccc2c(c1)Sc1ccccc1C(=O)N2CC#CC [10-(But-2-yn-1-yl)-7-((3-ethynylpyridin-2-yl)amino)dibenzo[b,f][1,4]thiazepin-11 (10H)-one]	> 6.30	–
CC#CCN1C(=O)c2ccccc2Sc2cc(Nc3nccc(C)c3F)ccc21 [10-(But-2-yn-1-yl)-7-((3-fluoro-4-methylpyridin-2-yl)amino)dibenzo[b,f][1,4]thiazepin-11 (10H)-one]	> 6.30	–
